Read-outs that look alike come from different tables or passages of the source.
Columns and labels:
Bap-tagged TTR protein = target: T1, Bap-tagged TTR protein (Homo sapiens, UniProt P02766); assay: KD determination by SPR (Surface Plasmon Resonance binding assay); details: for Kd: 1:1 binding model, read-out: Geometric Mean KD (μM) [SPR]
T1 construct: Bap tag (biotin acceptor peptide, by own knowledge)
Protocol: Affinity and Reversibility—The binding affinity and kinetics of binding were measured using Surface Plasmon Resonance based binding assay. […] Bap-tagged TTR protein was captured on a Streptavidin coated sensor chip to achieve about 2000 to 3000 RUs of surface density. All the samples were prepared in buffer consisting of 10 mM Sodium Phosphate, pH 7.6, 100 mM KCl, 0.005% Tween-20 and 2% DMSO. The same buffer was used as the running buffer during the experiments. Compound samples were injected at a flow rate of 30 μL/min for 90 seconds of association time followed by at least 240 seconds of dissociation period. The compounds were tested in a concentration series consisting of at least 6 samples (usually 10) made with 5-fold, 3-fold, or 2-fold dilution. […] Multiple blank injections were run before and after each compound series to allow double reference subtraction during data processing and analysis. […] A DMSO curve was run during each experiment to properly correct for excluded volume.

[1] = target: Recombinant wild-type TTR (Homo sapiens, UniProt P02766); assay: KD determination by ITC (Isothermal Titration Calorimetry); details: 25° C., sequential binding model with 2 sites
Protocol: KD Determination by ITC—Isothermal Titration Calorimetry
Recombinant wild-type TTR was diluted to 6.9 μM in 100 mM potassium chloride, 10 mM sodium phosphate pH 7.6, 2.5% DMSO, then degassed and transferred to the sample cell of a VP-ITC instrument (MicroCal). Compounds were diluted to 120 μM in an identical buffer, degassed, and injected 7 μL at a time into the protein solution at 25° C. with a reference power of 10 μCal/sec and 300 second spacing between injections.
Data were analyzed using VP-ITC analysis software in Origin. The data were corrected for heat of dilution then fit to a sequential binding model with 2 sites and K1, ΔH1, K2, and ΔH2 as independent parameters. If necessary, the protein concentration was adjusted by fitting the data to a two-independent-sites model and using the calculated N values to estimate the actual protein concentration that yields two total sites.

[2] = target: T2, human TTR (biotinylated recombinant protein) (Homo sapiens, UniProt P02766); assay: TTR SPA binding assay ([3H] tafamidis displacement), EC50 determination; details: read-out: Geometric Mean EC50
T2 construct: biotin (biotinylated)
Protocol: Binding of Examples to Transthyretin—EC50 Determination
Briefly, assays were prepared at room temperature in 384-well plates (Corning, 3767) containing 200 nL of test compound in DMSO (or DMSO as vehicle). […] The plates were incubated 1 hour prior to addition of 20 μL of 1.25 mg/mL SPA beads diluted in assay buffer. The assays were incubated an additional 10 hours to allow binding to reach equilibrium and the amount of receptor-ligand complex was determined by liquid scintillation counting using a 1450 Microbeta Trilux (Wallac).
The % effect values for test wells were calculated based on the total binding (vehicle, 0% effect) and non-specific binding (unlabeled ligand, 100% effect) wells on each assay plate. EC50 values were then determined using a standard 4 parameter logistic dose response equation.

[3] = first site, read-out: Geometric Mean KD1 (μM) [ITC]
[4] = second site, read-out: Geometric Mean KD2 (μM) [ITC]
[5] = SPA, 50 nM [3H] tafamidis, 100 ng human TTR

SMILES	Kd (Bap-tagged TTR protein) [µM]	EC50 [2, 5] [µM]	other results
Cc1n[nH]c(C)c1-c1cccc2scnc12 [Example 1, 4-(3,5-dimethyl-1H-pyrazol-4-yl)-1,3-benzothiazole]	0.039	0.031	Kd [1, 3]: 0.025 µM; Kd [1, 4]: 0.458 µM
Cc1n[nH]c(C)c1-c1cccc2ncsc12 [Example 2, 7-(3,5-dimethyl-1H-pyrazol-4-yl)-1,3-benzothiazole]			Kd [1, 3]: 0.005 µM; Kd [1, 4]: 0.431 µM
Cc1nc2c(-c3c(C)n[nH]c3C)cccc2s1 [Example 6, 4-(3,5-dimethyl-1H-pyrazol-4-yl)-2-methyl-1,3-benzothiazole]	0.574	1.78	
Cc1n[nH]c(C)c1-c1nccc2scnc12 [Example 10, 4-(3,5-dimethyl-1H-pyrazol-4-yl)[1,3]thiazolo[4,5-c]pyridine]	0.297	0.894	
Cc1cc(-c2c(C)n[nH]c2C)c2ncsc2c1 [Example 13, 4-(3,5-dimethyl-1H-pyrazol-4-yl)-6-methyl-1,3-benzothiazole]	0.058		EC50 [2]: 0.0214 µM
COc1cc(-c2c(C)n[nH]c2C)c2ncsc2c1 [Example 14, 4-(3,5-dimethyl-1H-pyrazol-4-yl)-6-methoxy-1,3-benzothiazole]	0.031		EC50 [2]: 0.0245 µM
Cc1n[nH]c(C)c1-c1cc(F)cc2scnc12 [Example 15, 4-(3,5-dimethyl-1H-pyrazol-4-yl)-6-fluoro-1,3-benzothiazole]	0.027		EC50 [2]: 0.0205 µM
Cc1n[nH]c(C)c1-c1cc(C#N)cc2scnc12 [Example 16, 4-(3,5-dimethyl-1H-pyrazol-4-yl)-1,3-benzothiazole-6-carbonitrile]		0.159	
Cc1n[nH]c(C)c1-c1c(F)ccc2scnc12 [Example 17, 4-(3,5-dimethyl-1H-pyrazol-4-yl)-5-fluoro-1,3-benzothiazole]		0.0287	
Cc1n[nH]c(C)c1-c1ccnc2scnc12 [Example 19, 7-(3,5-dimethyl-1H-pyrazol-4-yl)[1,3]thiazolo[5,4-b]pyridine]		0.165	
O=C(O)c1ccc2nc(-c3cc(Cl)cc(Cl)c3)oc2c1 [tafamidis, 2-(3,5-dichlorophenyI)-1,3-benzoxazole-6-carboxylic acid, reference compound]			reversibility of binding to TTR (Bap-tagged TTR protein): reversible; t1/2 (Bap-tagged TTR protein; tafamidis binding to TTR, n=24): 40.8 s

More lines, main results first:

Kd (Bap-tagged TTR protein) [µM]	EC50 [2, 5] [µM]	SMILES	other results
0.02	0.02	Cc1n[nH]c(C)c1-c1ccc(C)c2scnc12 [Example 3, 4-(3,5-dimethyl-1H-pyrazol-4-yl)-7-methyl-1,3-benzothiazole]	
0.049	0.04	Cc1n[nH]c(C)c1-c1ccc(C(F)(F)F)c2scnc12 [Example 4, 4-(3,5-dimethyl-1H-pyrazol-4-yl)-7-(trifluoromethyl)-1,3-benzothiazole]	
0.052	0.052	Cc1n[nH]c(C)c1-c1ccc(C#N)c2scnc12 [Example 5, 4-(3,5-dimethyl-1H-pyrazol-4-yl)-1,3-benzothiazole-7-carbonitrile]	
0.074	0.0661	Cc1[nH]nc(C#N)c1-c1cccc2scnc12 [Example 7, 4-(1,3-benzothiazol-4-yl)-5-methyl-1H-pyrazole-3-carbonitrile]	
0.027		Cc1[nH]nc(C#N)c1-c1ccc(C)c2scnc12 [Example 8, 5-methyl-4-(7-methyl-1,3-benzothiazol-4-yl)-1H-pyrazole-3-carbonitrile]	EC50 [2]: 0.0196 µM
0.62		Cc1[nH]nc(C#N)c1-c1ccc(C(F)(F)F)c2scnc12 [Example 9, 5-methyl-4-[7-(trifluoromethyl)-1,3-benzothiazol-4-yl]-1H-pyrazole-3-carbonitrile]	EC50 [2]: 0.0355 µM
	0.0363	COc1ccc(-c2c(C)n[nH]c2C)c2ncsc12 [Example 11, 4-(3,5-dimethyl-1H-pyrazol-4-yl)-7-methoxy-1,3-benzothiazole]	
	0.0372	Cc1n[nH]c(C)c1-c1ccc(F)c2scnc12 [Example 12, 4-(3,5-dimethyl-1H-pyrazol-4-yl)-7-fluoro-1,3-benzothiazole]	
	0.133	Cc1[nH]nc(C(F)(F)F)c1-c1cccc2scnc12 [Example 18, 4-[5-methyl-3-(trifluoromethyl)-1H-pyrazol-4-yl]-1,3-benzothiazole]	
